Measurements taken from the kinase profiling compilation of Christmann-Franck et al. (2016).

Legend:
Experiment in all cases: radiometric filter-binding kinase assay, Kinase HotSpot
Details in all cases: compound 0.5 µM; ATP 10 µM
AXL (human) = AXL (human) (UniProt P30530)
LCK (human) = LCK (human) (UniProt P06239)
MET (human) = MET (human) (UniProt P08581)
GRK5 (human) = GRK5 (human) (UniProt P34947)
PRKX (human) = PRKX (human) (UniProt P51817)
LIMK1 (human) = LIMK1 (human) (UniProt P53667)
MAPKAPK3 (human) = MAPKAPK3 (human) (UniProt Q16644)
Chain of MAPKAPK3 (human) (Q16644 whole entry, looked up): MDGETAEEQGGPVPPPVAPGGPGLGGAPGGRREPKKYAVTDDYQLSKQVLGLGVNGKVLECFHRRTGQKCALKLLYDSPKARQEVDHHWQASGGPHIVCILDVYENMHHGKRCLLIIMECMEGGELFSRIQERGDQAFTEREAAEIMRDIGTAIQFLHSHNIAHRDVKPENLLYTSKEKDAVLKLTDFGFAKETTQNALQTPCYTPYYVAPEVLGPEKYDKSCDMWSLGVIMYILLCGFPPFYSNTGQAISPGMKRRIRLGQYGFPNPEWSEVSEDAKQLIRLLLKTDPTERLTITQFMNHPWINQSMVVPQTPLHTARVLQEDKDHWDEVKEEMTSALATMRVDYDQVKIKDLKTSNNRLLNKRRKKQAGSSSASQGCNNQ

SRPK3 (human) = SRPK3 (human) (UniProt Q9UPE1)
ADRBK2 (human) = ADRBK2 (human) (UniProt P35626)
Chain of ADRBK2 (human) (P35626 whole entry, looked up): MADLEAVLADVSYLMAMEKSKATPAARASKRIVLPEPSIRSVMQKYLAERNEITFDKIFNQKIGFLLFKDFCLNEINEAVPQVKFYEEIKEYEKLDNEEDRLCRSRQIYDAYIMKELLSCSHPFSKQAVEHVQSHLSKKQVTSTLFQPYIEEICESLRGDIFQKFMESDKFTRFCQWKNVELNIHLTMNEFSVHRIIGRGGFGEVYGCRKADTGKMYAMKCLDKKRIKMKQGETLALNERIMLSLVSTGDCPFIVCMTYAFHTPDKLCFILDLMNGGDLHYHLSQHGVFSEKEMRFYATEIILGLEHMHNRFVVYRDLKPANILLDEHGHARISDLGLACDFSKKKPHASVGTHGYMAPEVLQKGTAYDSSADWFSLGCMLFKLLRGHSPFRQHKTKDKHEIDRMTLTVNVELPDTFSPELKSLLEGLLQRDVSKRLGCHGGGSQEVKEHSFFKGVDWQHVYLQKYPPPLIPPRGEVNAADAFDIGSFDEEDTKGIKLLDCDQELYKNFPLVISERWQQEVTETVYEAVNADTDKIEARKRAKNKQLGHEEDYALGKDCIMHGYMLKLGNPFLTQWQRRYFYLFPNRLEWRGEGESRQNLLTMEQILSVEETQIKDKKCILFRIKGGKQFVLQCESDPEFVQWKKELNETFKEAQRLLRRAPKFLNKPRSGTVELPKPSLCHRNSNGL

CSNK1E (human) = CSNK1E (human) (UniProt P49674)
MAPK3 (human) = MAPK3 (human) (UniProt P27361)
Chain of MAPK3 (human) (P27361 whole entry, looked up): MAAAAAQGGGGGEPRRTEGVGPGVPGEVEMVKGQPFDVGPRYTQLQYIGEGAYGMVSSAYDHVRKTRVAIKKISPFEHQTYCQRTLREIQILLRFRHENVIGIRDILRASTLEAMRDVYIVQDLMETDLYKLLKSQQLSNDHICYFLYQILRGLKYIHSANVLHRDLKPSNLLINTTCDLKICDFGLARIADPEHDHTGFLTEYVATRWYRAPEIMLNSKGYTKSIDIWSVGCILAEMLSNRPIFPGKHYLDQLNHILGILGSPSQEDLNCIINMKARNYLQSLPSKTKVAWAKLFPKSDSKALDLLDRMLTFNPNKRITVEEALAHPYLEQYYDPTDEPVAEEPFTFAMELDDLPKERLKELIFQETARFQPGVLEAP

MAPKAPK2 (human) = MAPKAPK2 (human) (UniProt P49137)
PTK6 (human) = PTK6 (human) (UniProt Q13882)
Chain of PTK6 (human) (Q13882 whole entry, looked up): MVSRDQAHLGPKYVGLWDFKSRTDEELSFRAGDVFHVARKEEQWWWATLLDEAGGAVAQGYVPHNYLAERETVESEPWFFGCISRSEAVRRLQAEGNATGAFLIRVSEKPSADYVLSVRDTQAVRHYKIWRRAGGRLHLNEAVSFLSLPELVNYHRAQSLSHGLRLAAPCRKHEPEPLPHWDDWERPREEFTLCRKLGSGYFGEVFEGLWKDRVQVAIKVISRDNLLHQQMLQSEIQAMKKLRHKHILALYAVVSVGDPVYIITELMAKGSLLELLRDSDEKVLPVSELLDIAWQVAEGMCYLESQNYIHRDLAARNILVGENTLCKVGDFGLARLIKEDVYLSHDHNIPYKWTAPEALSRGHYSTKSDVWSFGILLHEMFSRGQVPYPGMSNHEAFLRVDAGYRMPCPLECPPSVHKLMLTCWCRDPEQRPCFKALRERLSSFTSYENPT

CSK (human) = CSK (human) (UniProt P41240)
RPS6KB1 (human) = RPS6KB1 (human) (UniProt P23443)
STK10 (human) = STK10 (human) (UniProt O94804)
TXK (human) = TXK (human) (UniProt P42681)
NEK2 (human) = NEK2 (human) (UniProt P51955)
ULK2 (human) = ULK2 (human) (UniProt Q8IYT8)
CDK7 CCNH MNAT1 (human) = CDK7 CCNH MNAT1 (human) (UniProt P50613+P51948+P51946)
PIM1 (human) = PIM1 (human) (UniProt P11309)
ROCK1 (human) = ROCK1 (human) (UniProt Q13464)
CSF1R (human) = CSF1R (human) (UniProt P07333)
CHEK2 (human) = CHEK2 (human) (UniProt O96017)
Chain of CHEK2 (human) (O96017 whole entry, looked up): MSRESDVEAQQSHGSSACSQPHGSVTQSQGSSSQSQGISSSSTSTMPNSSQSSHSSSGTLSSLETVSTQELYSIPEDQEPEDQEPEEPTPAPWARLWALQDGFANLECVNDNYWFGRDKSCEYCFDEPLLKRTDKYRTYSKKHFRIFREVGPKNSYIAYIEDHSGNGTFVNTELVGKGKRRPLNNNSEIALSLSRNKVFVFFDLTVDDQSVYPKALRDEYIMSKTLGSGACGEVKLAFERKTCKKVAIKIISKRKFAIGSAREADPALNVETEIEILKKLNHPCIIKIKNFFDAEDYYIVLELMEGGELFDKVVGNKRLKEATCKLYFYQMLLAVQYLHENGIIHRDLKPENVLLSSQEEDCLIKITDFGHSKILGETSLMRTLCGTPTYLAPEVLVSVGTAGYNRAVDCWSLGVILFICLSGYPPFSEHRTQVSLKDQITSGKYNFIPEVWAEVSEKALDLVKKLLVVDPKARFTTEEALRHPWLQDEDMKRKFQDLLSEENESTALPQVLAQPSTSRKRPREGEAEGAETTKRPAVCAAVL

NUAK1 (human) = NUAK1 (human) (UniProt O60285)
SRPK2 (human) = SRPK2 (human) (UniProt P78362)
NTRK3 (human) = NTRK3 (human) (UniProt Q16288)
BRSK1 (human) = BRSK1 (human) (UniProt Q8TDC3)
Chain of BRSK1 (human) (Q8TDC3 whole entry, looked up): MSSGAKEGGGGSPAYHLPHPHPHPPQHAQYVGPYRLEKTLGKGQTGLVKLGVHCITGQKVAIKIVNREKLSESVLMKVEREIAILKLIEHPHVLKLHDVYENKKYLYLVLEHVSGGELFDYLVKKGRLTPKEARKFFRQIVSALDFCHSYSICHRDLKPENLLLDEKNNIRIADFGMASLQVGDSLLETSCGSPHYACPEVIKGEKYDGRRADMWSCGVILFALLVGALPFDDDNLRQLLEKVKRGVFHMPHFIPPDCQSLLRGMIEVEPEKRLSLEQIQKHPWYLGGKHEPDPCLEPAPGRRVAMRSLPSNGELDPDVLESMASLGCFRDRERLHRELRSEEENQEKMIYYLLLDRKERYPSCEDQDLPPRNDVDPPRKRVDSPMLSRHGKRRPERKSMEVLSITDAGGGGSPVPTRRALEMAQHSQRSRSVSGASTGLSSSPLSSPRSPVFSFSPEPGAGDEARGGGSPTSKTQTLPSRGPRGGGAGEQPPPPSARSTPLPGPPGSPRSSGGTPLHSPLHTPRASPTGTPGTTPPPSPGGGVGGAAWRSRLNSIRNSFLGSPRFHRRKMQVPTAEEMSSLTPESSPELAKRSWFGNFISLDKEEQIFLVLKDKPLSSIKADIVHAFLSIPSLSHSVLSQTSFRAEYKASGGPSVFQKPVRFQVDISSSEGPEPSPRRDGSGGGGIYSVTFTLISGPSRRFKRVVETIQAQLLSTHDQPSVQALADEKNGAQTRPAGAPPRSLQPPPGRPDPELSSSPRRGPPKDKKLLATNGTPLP

FGFR4 (human) = FGFR4 (human) (UniProt P22455)
Chain of FGFR4 (human) (P22455 whole entry, looked up): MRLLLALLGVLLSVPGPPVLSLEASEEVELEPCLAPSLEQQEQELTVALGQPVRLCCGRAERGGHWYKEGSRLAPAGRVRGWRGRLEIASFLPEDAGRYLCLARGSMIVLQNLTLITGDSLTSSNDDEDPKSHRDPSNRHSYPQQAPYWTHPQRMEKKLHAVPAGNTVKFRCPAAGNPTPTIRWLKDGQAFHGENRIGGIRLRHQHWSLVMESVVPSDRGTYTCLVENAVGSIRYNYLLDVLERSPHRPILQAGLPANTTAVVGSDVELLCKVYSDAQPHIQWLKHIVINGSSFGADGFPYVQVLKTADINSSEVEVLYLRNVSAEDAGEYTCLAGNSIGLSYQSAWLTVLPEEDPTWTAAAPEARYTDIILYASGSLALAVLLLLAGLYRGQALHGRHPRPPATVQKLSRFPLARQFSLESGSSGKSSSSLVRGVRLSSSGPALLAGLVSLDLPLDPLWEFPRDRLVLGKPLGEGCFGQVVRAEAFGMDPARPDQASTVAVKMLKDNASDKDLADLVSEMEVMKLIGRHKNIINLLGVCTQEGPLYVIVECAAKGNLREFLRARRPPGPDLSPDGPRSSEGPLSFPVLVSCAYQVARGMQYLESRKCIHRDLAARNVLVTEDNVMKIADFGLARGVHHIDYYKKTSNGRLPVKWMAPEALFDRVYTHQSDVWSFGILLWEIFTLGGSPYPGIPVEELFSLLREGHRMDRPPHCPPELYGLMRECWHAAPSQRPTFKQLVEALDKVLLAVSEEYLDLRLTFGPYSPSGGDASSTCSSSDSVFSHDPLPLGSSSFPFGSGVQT

PRKCZ (human) = PRKCZ (human) (UniProt Q05513)
MAP2K1 (human) = MAP2K1 (human) (UniProt Q02750)
NEK4 (human) = NEK4 (human) (UniProt P51957)
MAPK8 (human) = MAPK8 (human) (UniProt P45983)
Chain of MAPK8 (human) (P45983 whole entry, looked up): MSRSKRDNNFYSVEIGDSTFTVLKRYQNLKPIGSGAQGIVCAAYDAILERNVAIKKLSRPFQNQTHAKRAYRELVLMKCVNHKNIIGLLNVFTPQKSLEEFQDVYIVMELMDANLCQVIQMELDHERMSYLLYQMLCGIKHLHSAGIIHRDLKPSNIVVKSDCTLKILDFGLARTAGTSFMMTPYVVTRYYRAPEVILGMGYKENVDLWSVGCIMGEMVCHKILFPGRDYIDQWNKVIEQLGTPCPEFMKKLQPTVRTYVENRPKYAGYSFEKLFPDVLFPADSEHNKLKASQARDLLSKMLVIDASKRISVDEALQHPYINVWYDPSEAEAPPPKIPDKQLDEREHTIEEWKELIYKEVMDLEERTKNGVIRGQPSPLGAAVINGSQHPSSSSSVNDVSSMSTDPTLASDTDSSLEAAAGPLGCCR

PAK7 (human) = PAK7 (human) (UniProt Q9P286)
RET (human) = RET (human) (UniProt P07949)
SGK3 (human) = SGK3 (human) (UniProt Q96BR1)
STK3 (human) = STK3 (human) (UniProt Q13188)
EPHB2 (human) = EPHB2 (human) (UniProt P29323)
MST4 (human) = MST4 (human) (UniProt Q9P289)
NEK11 (human) = NEK11 (human) (UniProt Q8NG66)
NUAK2 (human) = NUAK2 (human) (UniProt Q9H093)
MAP2K2 (human) = MAP2K2 (human) (UniProt P36507)

Chain of PRKX (human) (P51817 whole entry, looked up): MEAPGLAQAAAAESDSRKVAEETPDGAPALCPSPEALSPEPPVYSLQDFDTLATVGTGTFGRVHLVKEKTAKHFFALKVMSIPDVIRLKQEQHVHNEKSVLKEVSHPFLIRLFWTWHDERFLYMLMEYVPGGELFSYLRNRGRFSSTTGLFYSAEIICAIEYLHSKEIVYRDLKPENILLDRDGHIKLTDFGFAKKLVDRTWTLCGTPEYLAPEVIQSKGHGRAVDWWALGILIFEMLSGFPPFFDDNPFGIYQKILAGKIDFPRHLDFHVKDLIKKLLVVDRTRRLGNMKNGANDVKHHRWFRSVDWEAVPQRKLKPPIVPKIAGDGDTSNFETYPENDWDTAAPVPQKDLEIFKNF

Which results are given for `O=C(CCCc1ccc(-c2ccccc2F)cc1)Nc1ccc(O)cc1`?
residual activity (AXL (human)): 91.4%; residual activity (LCK (human)): 95.5%; residual activity (MET (human)): 114%; residual activity (GRK5 (human)): 98.4%; residual activity (PRKX (human)): 106%; residual activity (LIMK1 (human)): 106%; residual activity (MAPKAPK3 (human)): 91%; residual activity (SRPK3 (human)): 93.7%; residual activity (ADRBK2 (human)): 100%; residual activity (CSNK1E (human)): 99.4%; residual activity (MAPK3 (human)): 132%; residual activity (MAPKAPK2 (human)): 103%; residual activity (PTK6 (human)): 102%; residual activity (CSK (human)): 88%; residual activity (RPS6KB1 (human)): 102%; residual activity (STK10 (human)): 95.3%; residual activity (TXK (human)): 97.7%; residual activity (NEK2 (human)): 90.6%; residual activity (ULK2 (human)): 116%; residual activity (CDK7 CCNH MNAT1 (human)): 101%; residual activity (PIM1 (human)): 97.9%; residual activity (ROCK1 (human)): 106%; residual activity (CSF1R (human)): 104%; residual activity (CHEK2 (human)): 101%; residual activity (NUAK1 (human)): 96.4%; residual activity (SRPK2 (human)): 94.3%; residual activity (NTRK3 (human)): 96.3%; residual activity (BRSK1 (human)): 103%; residual activity (FGFR4 (human)): 106%; residual activity (PRKCZ (human)): 116%; residual activity (MAP2K1 (human)): 104%; residual activity (NEK4 (human)): 103%; residual activity (MAPK8 (human)): 103%; residual activity (PAK7 (human)): 90.3%; residual activity (RET (human)): 111%; residual activity (SGK3 (human)): 106%; residual activity (STK3 (human)): 94.8%; residual activity (EPHB2 (human)): 98.5%; residual activity (MST4 (human)): 91.5%; residual activity (NEK11 (human)): 100%; residual activity (NUAK2 (human)): 92.9%; residual activity (MAP2K2 (human)): 95.1%

For `COc1ccc(OC)c2c(=S)c3ccccc3[nH]c12`, which residual activity (AXL (human)) is on record?
Its residual activity is 103%.

What about the residual activity (LCK (human)) of the same compound?
Its residual activity is 94.7%.

What about the residual activity (MET (human)) of the same compound?
Its residual activity is 99.2%.

And the residual activity (GRK5 (human))?
The residual activity was 108%.

And the residual activity (PRKX (human))?
The residual activity was 93.5%.

And the residual activity (LIMK1 (human))?
Its residual activity is 108%.

What about the residual activity (MAPKAPK3 (human)) of the same compound?
The residual activity was 87.7%.

What about the residual activity (SRPK3 (human)) of the same compound?
The residual activity was 96.8%.

What about the residual activity (ADRBK2 (human)) of the same compound?
The residual activity was 86.5%.

What about the residual activity (CSNK1E (human)) of the same compound?
Its residual activity is 90.3%.

And the residual activity (MAPK3 (human))?
Its residual activity is 103%.

What about the residual activity (MAPKAPK2 (human)) of the same compound?
Its residual activity is 94.6%.

And the residual activity (PTK6 (human))?
The residual activity was 84%.

And the residual activity (CSK (human))?
Its residual activity is 103%.

What about the residual activity (RPS6KB1 (human)) of the same compound?
Its residual activity is 99.4%.

What about the residual activity (STK10 (human)) of the same compound?
Its residual activity is 93.6%.

What about the residual activity (TXK (human)) of the same compound?
The residual activity was 101%.

What about the residual activity (ULK2 (human)) of the same compound?
Its residual activity is 94.7%.

What about the residual activity (CDK7 CCNH MNAT1 (human)) of the same compound?
The residual activity was 91.7%.

What about the residual activity (PIM1 (human)) of the same compound?
The residual activity was 93%.

And the residual activity (ROCK1 (human))?
Its residual activity is 97.8%.

And the residual activity (CSF1R (human))?
The residual activity was 93.4%.

And the residual activity (CHEK2 (human))?
The residual activity was 117%.

And the residual activity (NUAK1 (human))?
The residual activity was 99.3%.

What about the residual activity (SRPK2 (human)) of the same compound?
Its residual activity is 95.1%.

What about the residual activity (NTRK3 (human)) of the same compound?
Its residual activity is 93.6%.

What about the residual activity (BRSK1 (human)) of the same compound?
Its residual activity is 93.7%.

And the residual activity (FGFR4 (human))?
Its residual activity is 91.1%.

What about the residual activity (PRKCZ (human)) of the same compound?
The residual activity was 99.4%.

What about the residual activity (MAP2K1 (human)) of the same compound?
Its residual activity is 91.7%.

What about the residual activity (NEK4 (human)) of the same compound?
The residual activity was 87.7%.

And the residual activity (MAPK8 (human))?
Its residual activity is 96.8%.

And the residual activity (PAK7 (human))?
The residual activity was 82.9%.

And the residual activity (RET (human))?
The residual activity was 82.8%.

And the residual activity (SGK3 (human))?
Its residual activity is 90.7%.

And the residual activity (STK3 (human))?
Its residual activity is 104%.

What about the residual activity (EPHB2 (human)) of the same compound?
The residual activity was 94.9%.

What about the residual activity (MST4 (human)) of the same compound?
The residual activity was 90.8%.

And the residual activity (NEK11 (human))?
Its residual activity is 130%.

And the residual activity (NUAK2 (human))?
Its residual activity is 98.9%.

What about the residual activity (MAP2K2 (human)) of the same compound?
The residual activity was 100%.

Which residual activity (AXL (human)) does the source give for `COc1cc2ncc(-c3ccccc3)nc2cc1OC` here?
Its residual activity is 95.2%.

And the residual activity (LCK (human))?
Its residual activity is 93.5%.

What about the residual activity (MET (human)) of the same compound?
The residual activity was 92.6%.

And the residual activity (GRK5 (human))?
The residual activity was 106%.

What about the residual activity (PRKX (human)) of the same compound?
Its residual activity is 97.4%.

And the residual activity (LIMK1 (human))?
Its residual activity is 77.7%.

And the residual activity (MAPKAPK3 (human))?
The residual activity was 86.7%.

And the residual activity (SRPK3 (human))?
The residual activity was 91.1%.

And the residual activity (ADRBK2 (human))?
The residual activity was 94.3%.

And the residual activity (CSNK1E (human))?
The residual activity was 79.3%.

What about the residual activity (MAPK3 (human)) of the same compound?
The residual activity was 97.6%.

What about the residual activity (MAPKAPK2 (human)) of the same compound?
Its residual activity is 85.9%.

And the residual activity (PTK6 (human))?
The residual activity was 80.8%.

And the residual activity (CSK (human))?
The residual activity was 107%.

What about the residual activity (RPS6KB1 (human)) of the same compound?
Its residual activity is 89%.

What about the residual activity (STK10 (human)) of the same compound?
The residual activity was 89.6%.

And the residual activity (TXK (human))?
Its residual activity is 93.4%.

And the residual activity (NEK2 (human))?
The residual activity was 85.3%.

And the residual activity (ULK2 (human))?
The residual activity was 113%.

What about the residual activity (CDK7 CCNH MNAT1 (human)) of the same compound?
The residual activity was 109%.

And the residual activity (PIM1 (human))?
The residual activity was 95.9%.

What about the residual activity (ROCK1 (human)) of the same compound?
The residual activity was 95.5%.

What about the residual activity (CSF1R (human)) of the same compound?
Its residual activity is 88.2%.

What about the residual activity (CHEK2 (human)) of the same compound?
Its residual activity is 94.2%.

What about the residual activity (NUAK1 (human)) of the same compound?
Its residual activity is 85.6%.

And the residual activity (SRPK2 (human))?
The residual activity was 84.4%.

What about the residual activity (NTRK3 (human)) of the same compound?
Its residual activity is 89.1%.

And the residual activity (BRSK1 (human))?
The residual activity was 102%.

And the residual activity (FGFR4 (human))?
The residual activity was 78.7%.

And the residual activity (PRKCZ (human))?
Its residual activity is 96.3%.

And the residual activity (MAP2K1 (human))?
Its residual activity is 97.6%.

And the residual activity (NEK4 (human))?
Its residual activity is 101%.

And the residual activity (MAPK8 (human))?
The residual activity was 102%.

What about the residual activity (PAK7 (human)) of the same compound?
The residual activity was 85.6%.

And the residual activity (RET (human))?
The residual activity was 84.4%.

And the residual activity (SGK3 (human))?
Its residual activity is 89.7%.

And the residual activity (STK3 (human))?
Its residual activity is 95.7%.

What about the residual activity (MST4 (human)) of the same compound?
Its residual activity is 109%.

And the residual activity (NEK11 (human))?
The residual activity was 114%.

And the residual activity (NUAK2 (human))?
Its residual activity is 133%.

What about the residual activity (MAP2K2 (human)) of the same compound?
The residual activity was 102%.
